Laboratory results as given in patent US10597649B2, “Tau protease compositions and methods of use” (Oligomerix, Inc., priority 2011, dated 2020).

Key:
[1] = system: Tau 4R2N (amino acids 335-353) peptide substrate; experiment: Peptide digest HPLC assay of tau protease activity; type: biochemical, human; details: with 11 μg tau trimer protease, 20 hr at 37° C.
Source text: N-terminal sequencing of fragments using mass spectrometry identified autoproteolytic cut sites. In particular, cutting at the Lys340-Ser341 (340KS341) cut site occurred readily. Therefore, a 19-amino acid peptide corresponding to amino acids 335G to 353L of tau protein was synthesized that contained the KS cut site (340KS341). The reaction was monitored by reverse-phase high-pressure liquid chromatography (HPLC). […] An asterisk marks a non-specific contaminant that was used as a marker. […] 10 μg of tau peptide 335-353 ([…]) (SEQ ID NO:19) was custom synthesized by Genscript (Piscataway, N.J., USA) and 1 mg was dissolved in 1 mL of buffer (25 mM Tris-HCl pH 7.4). […] 32Karat™ LC-CE System, Beckman Coulter, Inc., (Indianapolis, Ind.)] using a linear gradient of acetonitrile in 0.1% TFA 0-60% acetonitrile on an analytical C18 column (12.5 cm×2.1 mm, 5 μm, (Supelco, Bellefonte, Pa., USA). 30 μg of peptide was incubated without tau protease as a negative control and analyzed with the same method;
Cleavage of the peptide substrate for tau protease, Tau 4R2N (amino acids 335-353) […] (SEQ ID NO.19), was used to monitor activity using reverse-phase HPLC. […] The large peak in the lower trace indicated intact peptide was greatly diminished in the upper trace and replaced with two smaller peaks F1 and F2 that represent fragments generated by TP-210. […]

[2] = system: Human α-endorphin peptide; experiment: Cleavage of α-endorphin peptide (HPLC); type: biochemical; details: 20 hrs at 37° C.
Experimental: Human α-endorphin peptide [[…](SEQ ID NO:13) (Abbiotech, LLC, San Diego, Calif., USA)] was incubated at 37° C. for 20 hrs with or without […] tau 4R2N trimer protease, and analyzed by reverse phase HPLC (SystemGold® 32Karat™ LC-CE System, Beckman Coulter, Inc., Indianapolis, Ind., USA) using a linear gradient of acetonitrile in 0.1% TFA, 0-60% acetonitrile on an analytical C18 column (12.5 cm×2.1 mm, 5 μm (Supelco). The peptide was hypothesized to be cut by tau protease because it contains Lys-Ser in its sequence which is found at autocatalytic cleavage sites in tau. Two fragment peaks were produced as predicted by tau 4R2N trimer protease. […] The asterisk indicates an artifactual peak unrelated to the peptide;
12 μg of α-endorphin peptide (Anaspec, Fremont, Calif.) was incubated with 1.2 μg of tau 4R/2N trimer in reaction buffer (25 mM Tris-HCl pH 7.4) for 20 hrs at 37° C. Reverse phase HPLC was used to monitor the cleavage of the peptide. […] The asterisk indicates an artifact peak that is derived from the incubation tube.

tubulin = experiment: Cleavage of tubulin by tau 4R2N trimer (SDS-PAGE); type: biochemical; details: 19.25 hrs at 37° C.
Experimental: In a result not shown, tau 4R2N trimer cut tubulin. In that study, Lane 1—tubulin, no incubation; Lane 2—tubulin incubated without tau; Lane 3—tubulin with tau 4R/2N trimer, no incubation; Lane 4—tubulin incubated with tau 4R2N trimer. […] Incubation of tubulin with tau4R2N trimer led to the formation of tubulin fragments and degradation of tubulin dimer.
Lyophilized tubulin (Cat# TL238, Cytoskeleton Inc.) was suspended in 200 μL buffer for 6 mg/mL solution. Samples were incubated for 19.25 hrs at 37° C. 10 μL 2× Laemmli sample buffer (BME) was added to each sample. Samples heated at 95° C. for 5 min in a thermal cycler with heated lid 5 min prior to loading.

tau 4R2N trimer: purified disulfide-mediated trimer species of recombinant human tau 4R2N
completeness of the peptide cleavage reaction [1]: more than 90% | cutting of α-endorphin peptide [2]: cuts α-endorphin peptide | cutting of tubulin (tubulin): cut tubulin
